Measurements reported in patent US9944968B2, “Control of protein glycosylation by culture medium supplementation and cell culture process parameters” (Biogen MA Inc., priority 2013, dated 2018).
Where two headings read alike, the source gives them in different places.

Columns and labels:
BIIB603 cell line = assay: BIIB603 shake flask fed-batch with MPA or acMPAG: afucosylation (N-glycan analysis); type: cell-based; conditions: BIIB603 shake flasks; MPA 20, 40 μM or acMPAG 20 μM dosed day 6; 4 more days at 31 °C; FIG. 18
Experimental: (§1) FIG. 18. Impact of Mycophenolic acid (MPA) and Mycophenolic acid acyl glucuronide (acMPAG) on afucosylation in BIIB603 cell line. The cells were scaled up to 5 L BR for fed-batch production process. On day 5, temperature was shifted from 37° C. to 31° C. On day 6, cell culture was drained from the bioreactor and divided into several 500 mL shake flasks with 100 mL working volume and then dosed with various amounts of MPA (0 μM, 20 μM, 40 μM) or acMPAG (20 μM) in duplicates. After dosing, the shake flasks were cultured another 4 days at 31° C., 5% CO2 and 150 rpm with fed-batch process and then harvested. The supernatant was sent for PQ assay (N-glycan analysis) for afucosylation level.
as §1, with “BIIB603” for “FIG. 18. Impact of Mycophenolic acid (MPA) and Mycophenolic acid acyl glucuronide (acMPAG) on afucosylation in BIIB603”, “line was” for “line. The cells were”

DUXB11 cell lines [1] = type: cell-based, Chinese hamster; conditions: for Cell viability (%): Chinese hamster, 3 days
Experimental: FIG. 7A and FIG. 7B. Impact of Mycophenolic acid (MPA) on afucosylation in cell lines (FIG. 7A and FIG. 7B showing two different cell lines) derived from DUXB11. The cells were cultured in 3 L bioreactor respectively for 7 days following the platform process. On day 7, the cells were divided into several 1 L shake flasks with 200 mL working volume and then dosed with various amounts of MPA (0 μM, […], 10 μM, 30 μM). After dosing MPA, shake flask fed-batch is conducted until day-3 harvest. Filtered supernatant samples were analyzed for titer and N-glycan analysis for afucosylation level.
DUXB11 cell lines (cell line #1 and #2) were cultured in 3 L bioreactor respectively for 7 days following the platform process. On day 7, the cells were divided into several 1 L shake flasks with 200 mL working volume and then dosed with various amounts of MPA (0 μM, 1 μM, 10 μM, 30 μM). After dosing MPA, shake flask fed-batch is conducted until day-3 harvest. Filtered supernatant samples were analyzed for titer and N-glycan analysis for afucosylation level. […] However, the titer was decreased (side effect) (see Table 8 below and FIG. 7A and FIG. 7B). […] The impact on viability became much more significant in bioreactor process (see Example 9 below).

DUXB11 cell lines [2] = type: cell-based, Chinese hamster; conditions: for impact on afucosylation: 3 L bioreactor, harvest D13; for Afucosylation (%) / Titer: MPA supplementation Day 5, DUXB11
Experimental: FIG. 8. Impact of the timing of supplementation with Mycophenolic acid (MPA) on afucosylation of DUXB11 cell line in 3 L bioreactors (A, B, C, and D) with the same seed density following the platform process. When the viable cell density (VCD) reached its peak (Day 5 in the study), fixed 5 μM of MPA was added in bioreactor A. At the same time, MPA was added in bioreactor B based on the VCD value to make sure MPA per cell is the same as the platform process to eliminate the possible impact of different cell growth. The next day (one day past peak VCD day, D6 in this study), fixed 5 μM of MPA was added in bioreactor C and MPA was added in bioreactor D based on its D6 VCD value to make sure MPA per cell is the same as the platform process to eliminate the possible impact of different cell growth. All bioreactors were harvested on D13. The filtered supernatant samples were analyzed for titer and N-glycan analysis for afucosylation level.
DUXB11 cell lines were cultured in 3 L bioreactor respectively following the platform process. On day 6, various amounts of MPA were dosed (0 μM and 5 μM). After dosing MPA, bioreactors were kept running until they were harvested on day 13. Filtered supernatant samples were analyzed for titer and N-glycan analysis for afucosylation level.
The culture conditions are described in FIG. 8. […] In addition, afucosylation level was increased with peak VCD day MPA addition (fixed 5 μM MPA vs. VCD based MPA addition).
The effect of temperature shift and supplementation with MPA is provided in FIG. 12, FIG. 13, FIG. 14A, and FIG. 14B and Table 11 below.

FcgRIII a = assay: FcgRIIIa binding of product after insulin and MPA supplement on DUXB11
DUXB11 cell line = assay: DUXB11 3 L bioreactor with insulin additions and fixed MPA: afucosylation, glycosylation map, titer; type: cell-based, Chinese hamster; set-up: M3F / Afucosyl / G0 / G0F / MS / G1 + G1′ / G1F + G1F′ / M6 / G2 / G2F: unit not given here; conditions: for Afucosyl / G0 / G0F / G1 + G1′ / G1F + G1F′ / G2 / G2F / M3F / M6 / MS: with MPA, DUXB11; for Afucosylation (%) / Titer: fixed 5 μM MPA, DUXB11 3 L bioreactor
Experimental: FIG. 11. […] Fixed 5 μM of MPA was added on Day 9 in all bioreactors and harvested on the same day. Filtered supernatant samples were analyzed for titer and N-glycan analysis for afucosylation level.
The culture conditions are described in FIG. 11.

[3] = 1 μM MPA dosed day 7, DUXB11 shake flask, harvest 3 days after dosing
[4] = 10 μM MPA dosed day 7, DUXB11 shake flask, harvest 3 days after dosing
[5] = 30 μM MPA dosed day 7, DUXB11 shake flask, harvest 3 days after dosing
[6] = increasing MPA dosing concentration (1, 10, 30 μM), shake flask

COc1c(C)c2c(c(O)c1C/C=C(\C)CCC(=O)O)C(=O)OC2 [MPA, mycophenolic acid]
afucosylation level (BIIB603 cell line): increase in the afucosylation level | impact on viability (DUXB11 cell lines [1]): not significant | Afucosylation (%) (DUXB11 cell lines [1]; [3]): 3.85% | Titer (DUXB11 cell lines [1]; [3]): 0.136 g/L | Afucosylation (%) (DUXB11 cell lines [1]; [4]): 4.9% | Titer (DUXB11 cell lines [1]; [4]): 0.106 g/L | Afucosylation (%) (DUXB11 cell lines [1]; [5]): 4.4% | Titer (DUXB11 cell lines [1]; [5]): 0.105 g/L | Cell viability (%) (DUXB11 cell lines [1]; 1 μM): 62% | Cell viability (%) (DUXB11 cell lines [1]; 10 μM): 61% | Cell viability (%) (DUXB11 cell lines [1]; 30 μM): 62% | Titer (DUXB11 cell lines [1]; [6]): decreased | afucosylation level (DUXB11 cell lines [1]; [6]): increase | impact on afucosylation (DUXB11 cell lines [2]; MPA added on a different day than peak VCD (one day past, D6)): non-significant impact | impact on afucosylation (DUXB11 cell lines [2]; MPA added on the day of peak VCD (Day 5), fixed 5 μM or VCD based): significant impact | Afucosylation (%) (DUXB11 cell lines [2]; temperature 35 to 30 °C): 11.9% | Titer (DUXB11 cell lines [2]; temperature 35 to 30 °C): 1.5 g/L | Afucosylation (%) (DUXB11 cell lines [2]; temperature 35 to 33 °C): 10.7% | Titer (DUXB11 cell lines [2]; temperature 35 to 33 °C): 1.8 g/L

COc1c(C)c2c(c(O)c1C/C=C(\C)CCC(=O)O[C@@H]1O[C@H](C(=O)O)[C@@H](O)[C@H](O)[C@H]1O)C(=O)OC2 [acMPAG, mycophenolic acid acyl glucuronide]
afucosylation level (BIIB603 cell line): increased the afucosylation level to similar extent

insulin
FcgRIII a binding (FcgRIII a; 2.5 mg/L ins in feed 1, with MPA): 60 | FcgRIII a binding (FcgRIII a; 10 mg/L ins in feed 1, with MPA): 71 | FcgRIII a binding (FcgRIII a; 30 mg/L ins in feed 1, with MPA): 100 | FcgRIII a binding (FcgRIII a; 60 mg/L ins in feed 1, with MPA): 100 | Afucosyl (DUXB11 cell line; 2.5 mg/L ins in feed 1): 4.9 | G0 (DUXB11 cell line; 2.5 mg/L ins in feed 1): 3.9 | G0F (DUXB11 cell line; 2.5 mg/L ins in feed 1): 68.1 | G1 + G1′ (DUXB11 cell line; 2.5 mg/L ins in feed 1): 0.9 | G1F + G1F′ (DUXB11 cell line; 2.5 mg/L ins in feed 1): 20.2 | G2 (DUXB11 cell line; 2.5 mg/L ins in feed 1): 0.0 | G2F (DUXB11 cell line; 2.5 mg/L ins in feed 1): 1.8 | M3F (DUXB11 cell line; 2.5 mg/L ins in feed 1): 1.0 | M6 (DUXB11 cell line; 2.5 mg/L ins in feed 1): 0.90 | MS (DUXB11 cell line; 2.5 mg/L ins in feed 1): 2.2 | Afucosyl (DUXB11 cell line; 10 mg/L ins in feed 1): 6.2 | G0 (DUXB11 cell line; 10 mg/L ins in feed 1): 5.1 | G0F (DUXB11 cell line; 10 mg/L ins in feed 1): 64.9 | G1 + G1′ (DUXB11 cell line; 10 mg/L ins in feed 1): 1.1 | G1F + G1F′ (DUXB11 cell line; 10 mg/L ins in feed 1): 21.7 | G2 (DUXB11 cell line; 10 mg/L ins in feed 1): 0.0 | G2F (DUXB11 cell line; 10 mg/L ins in feed 1): 2.3 | M3F (DUXB11 cell line; 10 mg/L ins in feed 1): 0.9 | M6 (DUXB11 cell line; 10 mg/L ins in feed 1): 0.9 | MS (DUXB11 cell line; 10 mg/L ins in feed 1): 2.2 | G0 (DUXB11 cell line; 30 mg/L ins in feed 1): 6.7 | G0F (DUXB11 cell line; 30 mg/L ins in feed 1): 62.5 | G1 + G1′ (DUXB11 cell line; 30 mg/L ins in feed 1): 1.3 | G1F + G1F′ (DUXB11 cell line; 30 mg/L ins in feed 1): 21.1 | G2 (DUXB11 cell line; 30 mg/L ins in feed 1): 0.0 | G2F (DUXB11 cell line; 30 mg/L ins in feed 1): 2.3 | M3F (DUXB11 cell line; 30 mg/L ins in feed 1): 0.9 | M6 (DUXB11 cell line; 30 mg/L ins in feed 1): 1.1 | MS (DUXB11 cell line; 30 mg/L ins in feed 1): 2.4 | G0 (DUXB11 cell line; 60 mg/L ins in feed 1): 6.4 | G0F (DUXB11 cell line; 60 mg/L ins in feed 1): 61.4 | G1 + G1′ (DUXB11 cell line; 60 mg/L ins in feed 1): 1.4 | G1F + G1F′ (DUXB11 cell line; 60 mg/L ins in feed 1): 22.9 | G2 (DUXB11 cell line; 60 mg/L ins in feed 1): 0.0 | G2F (DUXB11 cell line; 60 mg/L ins in feed 1): 2.6 | M3F (DUXB11 cell line; 60 mg/L ins in feed 1): 0.8 | M6 (DUXB11 cell line; 60 mg/L ins in feed 1): 0.9 | MS (DUXB11 cell line; 60 mg/L ins in feed 1): 2.5 | afucosylation (DUXB11 cell line; increasing insulin concentration with same MPA supplementation, fed-batch culture): increased afucosylation | Afucosylation (%) (DUXB11 cell line; total insulin added 11 mg/L): 4.9% | Titer (DUXB11 cell line; total insulin added 11 mg/L): 2.3 g/L | Afucosylation (%) (DUXB11 cell line; total insulin added 13 mg/L): 6.2% | Titer (DUXB11 cell line; total insulin added 13 mg/L): 2.6 g/L
